Marks after values point to notes of the source that are not given here.
What was measured:
[1] = test system: rat pituitary cell; settings: LH-releasing activity compared to that produced by 3 nM LH-RH; peptide infused for 3 minutes
Procedure: Ability of compounds to influence LH release in vitro is assayed by using a superfused rat pituitary cell system [S. Vigh and A. V. Schally, Peptides, 5 Suppl.
LH-releasing effect of compounds is determined as follows: each peptide is perfused through the cells for 3 min (1 ml perfusate) at 20-100 pM. LH content of 1 ml fractions collected is determined by radioimmunoassay (RIA). Potency of peptides is compared to that of 3 nM LHRH perfused similarly.
The peptide was infused for 3 minutes at various concentration, and the amount of LH released was compared to that released by 3 nM LHRH.

[2] = test system: membrane receptors of human breast cancer cells; assay: Receptor binding affinity for human breast cancer cell membranes, labelled [D-Trp6]LHRH as ligand
Procedure: Affinity for peptides to human breast cancer cell membranes is determined by using labelled LHRH and [D-Trp⁶]LHRH. The assay is carried out similarly to that described by T. Kadar et al., Proc. Natl. Acad. Sci. USA, 85, 890-894 (1988) and M. Fekete et al., Endocrinology, 124, 946-955 (1989).
(§1) Table 2 presents the antiovulatory activity and human breast cancer cell membrane receptor binding affinity of the claimed compounds having LHRH-inhibiting properties. The inhibitory action was determined in vivo, in 4-day cycling rats as described [A. Corbin and C. W. Beattie, Endocr. Res. Commun., 2, 1-23 (1975)].

[3] = test system: 4-day-cycling rats; assay: In vivo antiovulatory activity; settings: 10 µg per rat
Procedure: This activity of the peptides is determined in 4-day-cycling rats as described [A. Corbin and C. W. Beattie, Endocr. Res. Commun., 2, 1-23 (1975)].
as §1

[4] = test system: MCF-7 human breast cancer cell line; assay: Cytotoxicity test: inhibition of 3H-thymidine incorporation into DNA; assay type: cell-based
Procedure: Ability of peptides of Formula I to inhibit incorporation of [³H]thymidine into DNA of monolayer cultures the human mammary tumor cell line MCF-7 is assayed as described [V. K. Sondak et al., Cancer Research, 44, 1725-1728 (1984); F. Holzel et al., J. Cancer Res. Clin. Oncol. 109, 217-226 (1985); M. Albert et al., J. Cancer Res. Clin. Oncol. 109, 210-216 (1985)].
200,000 cells in 200 µl of […] + 2% CFBS were incubated with 1,5 or 10 µg cytotoxic analogs for 3 hours or 23 hours then 1 µCi ³H-thymidine added and incubated an additional 60 min. DNA extracted with 1 N perchloric acid and the radioactivity measured.

[5] = test system: human mammary cell line MDA-MB-231; settings: 10µg dose; cited from earlier work
[6] = Table 2, ¹²⁵I-[D-Trp]⁶ LHRH used as the labelled ligand
[7] = Table 1, ¹²⁵I-[D-Trp]⁶LHRH used as labelled ligand

Molecule	Affinity Constant Ka1 [2, 6]	%Ovulation Blockade [3]	% Inhibition at 24 hrs ([4]; Dose 1 µg/ml)	% Inhibition at 24 hrs ([4]; Dose 10 µg/ml)	Affinity Constant Ka1 [2, 7]	other results
CC(C)C[C@H](NC(=O)[C@@H](CCCCNC(=O)CCCC(=O)OCc1ccc2c(c1)C(=O)c1ccccc1C2=O)NC(=O)[C@H](Cc1ccc(O)cc1)NC(=O)[C@H](CO)NC(=O)[C@H](Cc1c[nH]c2ccccc12)NC(=O)[C@H](Cc1c[nH]cn1)NC(=O)[C@@H]1CCC(=O)N1)C(=O)N[C@@H](CCCNC(=N)N)C(=O)N1CCC[C@H]1C(=O)NCC(N)=O [compound 1, pGlu-His-Trp-Ser-Tyr-D-Lys(HMAQG)-Leu-Arg-Pro-Gly-NH₂]	–	–	–	–	–	Relative Activity [1]: 35
Ac-Nal(2)-D-Phe(4Cl)-D-Pal(3)-Ser-Arg-D-Lys[A₂pr(HMAQG)₂]-Leu-Arg-Pro-D-Ala-NH₂ [compound 4]	2.28 nM⁻¹	40%	15%	40** %	–	% Inhibition at 4 hrs ([4]; Dose 1 µg/ml): 31** %; % Inhibition at 4 hrs ([4]; Dose 10 µg/ml): 28** %
Ac-Nal(2)-D-Phe(4Cl)-D-Trp-Ser-Arg-D-Lys[A₂pr(HMAQG)₂]-Leu-Arg-Pro-D-Ala-NH₂ [compound 3]	7.05 nM⁻¹	0%	3%	11%	–	Affinity Constant Ka2 [2, 6]: 8.6 µM⁻¹
pGlu-His-Trp-Ser-Tyr-D-Lys(MTX)-Leu-Arg-Pro-Gly-NH₂ [2A]	–	–	–	–	5.42 nM⁻¹	Affinity Constant Ka2 [2, 7]: 1.59 µM⁻¹
pGlu-His-Trp-Ser-Tyr-D-Lys(MTX)-Leu-Arg-Pro-Gly-NH₂ [2B]	–	–	–	–	0.63 nM⁻¹	–
pGlu-His-Trp-Ser-Tyr-D-Lys[Ahx-A₂bu(SAL)₂(Cu)]-Leu-Arg-Pro-Gly-NH₂	–	–	–	–	–	inhibits the [³H]thymidine incorporation into DNA [5]: 87%

Reference: patent EP0450461B1, “LHRH Analogs” (The Administrators of The Tulane Educational Fund, priority 1990, dated 1991)
